Experimental data taken from PubChem BioAssay AID248 (DTP/NCI, 2004).
Values joined by “and” are separate entries in the source; they are usually repeats but may differ in a detail not shown here. Equal entries are not always repeated. Inconclusive results and toxic doses are left out. Cut-off read from the data, not from the text of the source: active = T/C of 150% or more; inactive = T/C below 125%.

Tested on: L1210 leukemia ip in BDF1 mice, survival T/C
Assay: NCI In Vivo Anticancer Drug Screen. Data for tumor model L1210 Leukemia (intraperitoneal) in B6D2F1 (BDF1) mice
Details: endpoint: mean survival time, higher = longer survival
Procedure, shortened: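 Tumor was transplanted into mice, which were then dosed with test compound or vehicle alone. Survival was recorded for each group, and the treated figure was expressed relative to the control figure.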

[1] = dose: 25.0 mg/kg/injection, schedule: Q01DX001 (ip), vehicle: saline
[2] = dose: 25.0 mg/kg/injection, schedule: Q04DX003 (ip), vehicle: saline
[3] = dose: 50.0 mg/kg/injection, schedule: Q01DX001 (ip), vehicle: saline
[4] = dose: 50.0 mg/kg/injection, schedule: Q04DX003 (ip), vehicle: saline
[5] = dose: 100.0 mg/kg/injection, schedule: Q01DX001 (ip), vehicle: saline
[6] = dose: 200.0 mg/kg/injection, schedule: Q01DX001 (ip), vehicle: saline
[7] = dose: 100.0 mg/kg/injection, schedule: Q01DX009 (ip), vehicle: saline with Tween-80
[8] = dose: 200.0 mg/kg/injection, schedule: Q01DX009 (ip), vehicle: saline with Tween-80
[9] = dose: 100.0 mg/kg/injection, schedule: Q01DX009 (ip), vehicle: saline
[10] = dose: 100.0 mg/kg/injection, schedule: Q01DX009 (ip), vehicle: Klucel (hydroxypropylcellulose) (HPC)
[11] = dose: 200.0 mg/kg/injection, schedule: Q01DX009 (ip), vehicle: Klucel (hydroxypropylcellulose) (HPC)
[12] = dose: 400.0 mg/kg/injection, schedule: Q01DX009 (ip), vehicle: Klucel (hydroxypropylcellulose) (HPC)
[13] = dose: 200.0 mg/kg/injection, schedule: Q04DX003 (ip), vehicle: saline with Tween-80
[14] = dose: 400.0 mg/kg/injection, schedule: Q04DX003 (ip), vehicle: saline with Tween-80
[15] = dose: 100.0 mg/kg/injection, schedule: Q04DX003 (ip), vehicle: saline with Tween-80

Measured: T/C

Cc1ccccc1N1CCN(CCO)CC1
inactive: dose: 12.5 mg/kg/injection, schedule: Q01DX001 (ip), vehicle: saline 105 % of control | dose: 12.5 mg/kg/injection, schedule: Q04DX003 (ip), vehicle: saline 100 % of control | [1] 105 % of control | [2] 110 % of control | [3] 100 % of control | [4] 110 % of control

N#CC(C#N)c1ccc(C(C#N)C#N)cc1
inactive: [3] 103 % of control | [5] 122 % of control | [6] 103 % of control

COc1ccc(C(=O)C(C)C)cc1
inactive: dose: 37.5 mg/kg/injection, schedule: Q01DX009 (ip), vehicle: saline sonified 95 % of control | dose: 75.0 mg/kg/injection, schedule: Q01DX009 (ip), vehicle: saline sonified 93 % of control | dose: 150.0 mg/kg/injection, schedule: Q01DX009 (ip), vehicle: saline sonified 103 % of control

COCCCCO
inactive: dose: 50.0 mg/kg/injection, schedule: Q01DX009 (ip), vehicle: saline with Tween-80 97 % of control | [7] 97 % of control | [8] 90 % of control

Cc1ccc(NCCN2CCCCC2)c2c(=O)c3ccccc3sc12
inactive: [9] 110 % of control | dose: 200.0 mg/kg/injection, schedule: Q01DX009 (ip), vehicle: saline 96 % of control | dose: 400.0 mg/kg/injection, schedule: Q01DX009 (ip), vehicle: saline 107 % of control

CCCCOC(=O)c1ccc(NC(=O)Nc2cc(C(F)(F)F)ccc2Cl)cc1
inactive: [10] 107 % of control | [11] 113 % of control | [12] 94 % of control

O=C(Nc1ccc(C(=O)O)c(O)c1)c1ccccc1
inactive: dose: 100.0 mg/kg/injection, schedule: Q01DX001 (ip), vehicle: acetone 96 % of control | dose: 100.0 mg/kg/injection, schedule: Q04DX003 (ip), vehicle: saline sonified 98 % of control | dose: 200.0 mg/kg/injection, schedule: Q01DX001 (ip), vehicle: acetone 97 % of control | dose: 200.0 mg/kg/injection, schedule: Q04DX003 (ip), vehicle: saline sonified 101 % of control | dose: 400.0 mg/kg/injection, schedule: Q01DX001 (ip), vehicle: acetone 97 % of control | dose: 400.0 mg/kg/injection, schedule: Q04DX003 (ip), vehicle: saline sonified 101 % of control

CCCCC1CCC2=C(CC(O)(CCCC)CC3=C1C(=O)OC3=O)C(=O)OC2=O (configuration not stated)
inactive: dose: 100.0 mg/kg/injection, schedule: Q04DX002 (ip), vehicle: saline with Tween-80 106 % of control | dose: 200.0 mg/kg/injection, schedule: Q04DX002 (ip), vehicle: saline with Tween-80 95 % of control

CCC1CC2CC(c3cc4c(cc3OC)N(C)C3C(O)(C(=O)OC)C(OC(C)=O)C5(CC)C=CCN6CCC43C65)c3[nH]c4ccccc4c3CCN(C1)C2 (configuration not stated)
inactive: dose: 0.25 mg/kg/injection, schedule: Q01DX009 (ip), vehicle: Klucel (hydroxypropylcellulose) (HPC) 100 % of control | dose: 0.5 mg/kg/injection, schedule: Q01DX009 (ip), vehicle: Klucel (hydroxypropylcellulose) (HPC) 105 % of control | dose: 1.0 mg/kg/injection, schedule: Q01DX009 (ip), vehicle: Klucel (hydroxypropylcellulose) (HPC) 101 % of control | dose: 2.0 mg/kg/injection, schedule: Q01DX009 (ip), vehicle: Klucel (hydroxypropylcellulose) (HPC) 97 % of control | dose: 4.0 mg/kg/injection, schedule: Q01DX009 (ip), vehicle: Klucel (hydroxypropylcellulose) (HPC) 110 % of control | dose: 8.0 mg/kg/injection, schedule: Q01DX009 (ip), vehicle: Klucel (hydroxypropylcellulose) (HPC) 103 % of control

Fc1c(F)c(F)c(Oc2nc(-c3ccccc3)nc(-c3ccccc3)n2)c(F)c1F
inactive: dose: 25.6 mg/kg/injection, schedule: Q04DX002 (ip), vehicle: saline with Tween-80 92 % of control | dose: 64.0 mg/kg/injection, schedule: Q04DX002 (ip), vehicle: saline with Tween-80 106 % of control | dose: 160.0 mg/kg/injection, schedule: Q04DX002 (ip), vehicle: saline with Tween-80 100 % of control | dose: 400.0 mg/kg/injection, schedule: Q04DX002 (ip), vehicle: saline with Tween-80 95 % of control

CC(=N)N
inactive: dose: 100.0 mg/kg/injection, schedule: Q04DX003 (ip), vehicle: saline 114 % of control | dose: 200.0 mg/kg/injection, schedule: Q04DX003 (ip), vehicle: saline 90 % of control | dose: 400.0 mg/kg/injection, schedule: Q04DX003 (ip), vehicle: saline 111 % of control

Cc1c(N)nc(N)nc1C(=O)O
inactive: dose: 25.0 mg/kg/injection, schedule: Q01DX001 (ip), vehicle: Klucel (hydroxypropylcellulose) (HPC) 108 % of control | dose: 50.0 mg/kg/injection, schedule: Q01DX001 (ip), vehicle: Klucel (hydroxypropylcellulose) (HPC) 93 % of control | dose: 100.0 mg/kg/injection, schedule: Q01DX001 (ip), vehicle: Klucel (hydroxypropylcellulose) (HPC) 105 % of control

Clc1ccc(NC2=NCCO2)cc1Cl
inactive: dose: 44.0 mg/kg/injection, schedule: Q04DX003 (ip), vehicle: saline with Tween-80 101 % of control | dose: 66.0 mg/kg/injection, schedule: Q04DX003 (ip), vehicle: saline with Tween-80 103 % of control | dose: 150.0 mg/kg/injection, schedule: Q04DX003 (ip), vehicle: saline with Tween-80 93 % of control | [13] 92 % of control | [14] 94 % of control

COc1ccc(/C=N/NC(=O)c2ccccc2NC(=O)c2ccccc2Cl)cc1
inactive: dose: 50.0 mg/kg/injection, schedule: Q01DX009 (ip), vehicle: Klucel (hydroxypropylcellulose) (HPC) 91 % of control | [10] 107 % of control and 91 % of control | [11] 102 % of control | [12] 98 % of control and 91 % of control

OC(C1COC(CBr)O1)C(O)C1COC(CBr)O1 (configuration not stated)
inactive: dose: 100.0 mg/kg/injection, schedule: Q04DX002 (ip), vehicle: Klucel (hydroxypropylcellulose) (HPC) 117 % of control and 113 % of control | dose: 200.0 mg/kg/injection, schedule: Q04DX002 (ip), vehicle: Klucel (hydroxypropylcellulose) (HPC) 98 % of control and 103 % of control | dose: 400.0 mg/kg/injection, schedule: Q04DX002 (ip), vehicle: Klucel (hydroxypropylcellulose) (HPC) 95 % of control

Nc1nc(C=O)c(Cc2ccc(Br)cc2)c(=O)[nH]1
inactive: [7] 118 % of control | [15] 100 % of control | [13] 105 % of control | [14] 102 % of control

Nc1ccc(/C=C/c2ccc(N)cc2S(=O)(=O)O)c(S(=O)(=O)O)c1
inactive: [3] 97 % of control | [5] 94 % of control | [6] 94 % of control | dose: 400.0 mg/kg/injection, schedule: Q01DX001 (ip), vehicle: saline 97 % of control

CCCCCCCCCCCCCCCCCCNc1ccc(C(=O)OCC)cc1
inactive: dose: 37.5 mg/kg/injection, schedule: Q01DX009 (ip), vehicle: saline 94 % of control | dose: 75.0 mg/kg/injection, schedule: Q01DX001 (ip), vehicle: saline 86 % of control | dose: 75.0 mg/kg/injection, schedule: Q01DX009 (ip), vehicle: saline 95 % of control | dose: 75.0 mg/kg/injection, schedule: Q04DX003 (ip), vehicle: saline 87 % of control | dose: 150.0 mg/kg/injection, schedule: Q01DX009 (ip), vehicle: saline 96 % of control | dose: 150.0 mg/kg/injection, schedule: Q04DX003 (ip), vehicle: saline 87 % of control | dose: 300.0 mg/kg/injection, schedule: Q01DX001 (ip), vehicle: saline 88 % of control | dose: 300.0 mg/kg/injection, schedule: Q04DX003 (ip), vehicle: saline 92 % of control

CCCCCCCCN
inactive: [1] 103 % of control | dose: 25.0 mg/kg/injection, schedule: Q01DX009 (ip), vehicle: saline 108 % of control and 111 % of control | dose: 25.0 mg/kg/injection, schedule: Q04DX002 (ip), vehicle: saline 101 % of control and 105 % of control | [2] 101 % of control | [3] 101 % of control | dose: 50.0 mg/kg/injection, schedule: Q01DX009 (ip), vehicle: saline 104 % of control | dose: 50.0 mg/kg/injection, schedule: Q04DX002 (ip), vehicle: saline 100 % of control and 105 % of control | [4] 98 % of control | [5] 94 % of control | [9] 111 % of control

CC12CCC(O)CC1=CCC1C2CCC2(C)C(C(O)CC(O)(C(F)(F)F)C(F)(F)F)CCC12 (configuration not stated)
inactive: [15] 92 % of control | [13] 93 % of control | [14] 93 % of control

Cn1nnc2nnc(-c3ccccc3)n21
inactive: [7] 100 % of control | [15] 95 % of control | [8] 94 % of control | [13] 106 % of control | dose: 400.0 mg/kg/injection, schedule: Q01DX009 (ip), vehicle: saline with Tween-80 108 % of control | [14] 98 % of control
